# Assay results as given in PMC10088252.
# Key:
# [1] = Plasma PK after multiple doses for 28 days, Part A (PKAS), routine PK analysis; format: in vivo, human
# Method: Serial peripheral blood samples were collected at pre-dose on Cycle 1 Day 8, Cycle 1 Day 15 and Cycle 1 Day 22 for the trough concentration (Ctrough) obtained during the dosing interval. […] After Cycle 1, the Ctrough was measured every 4 or 8 or 12 weeks. The whole blood (3 mL) was taken intravenously and placed in sodium heparin tubes, gently turned over 15 times, and centrifuged within 1 h (4 °C 3000 rpm for 10 min). Two portions of the centrifuged upper plasma should be transferred to 1.5 mL centrifuge tubes with identification labels and stored at -80 °C. The following PK parameters were assessed: time to maximum plasma concentration at steady state (Tmax,ss), overall body clearance at steady state for extravascular dosage (CLss/F), terminal half-life (T1/2), plasma Ctrough observed in Cycle 1 at steady state, total volume of drug distribution at steady state according to the terminal phase (Vz,ss/F), AUC over a dosing interval (AUCtau), ratio of metabolites to parent drug calculated based on AUCtau (MP ratio).
# Statistical analyses were performed using SAS version 9.4 (SAS Institute, Cary, NC, USA). Age was expressed as median (range), and categorical variables were expressed as frequency (percentage). The 95% CIs of ORR and DCR were calculated using Clopper-Pearson method. The 95% CIs of PFS and OS were calculated using Brookmeyer-Crowley method. PK parameters were expressed as mean (standard deviation) or median (range), and analyzed using Phoenix version 8.0 (Certara, LP, Princeton, NJ, USA). No imputation method was performed for missing data.
# [2] = Chinese patients with advanced NSCLC, even at 800 mg QD; cited from earlier work
compound,measurement,setting,value
O=C(Nc1ccc(Oc2ccnc3c2CCN3)c(F)c1)c1c[nH]cc(-c2ccc(F)cc2)c1=O,"AUCtau, mean (SD)","[1]; 300 mg QD (n=7), 28 days",7680.0 (4120.0) h × ng/mL
same,"CLss/F, mean (SD)","[1]; 300 mg QD (n=7), 28 days",50.4 (25.6) L/h
same,"Cmax,ss, mean (SD)","[1]; 300 mg QD (n=7), 28 days",794.0 (370.0) ng/mL
same,"Cmin,ss, mean (SD)","[1]; 300 mg QD (n=7), 28 days",104.0 (49.0) ng/mL
same,"Ctrough, mean (SD)","[1]; 300 mg QD (n=7), 28 days",113.5 (55.0) ng/mL
same,"T1/2, mean (SD)","[1]; 300 mg QD (n=7), 28 days",11.2 (2.8) h
same,"Tmax,ss, mean (SD)","[1]; 300 mg QD (n=7), 28 days",3.9 (2.0) h
same,"Vz,ss/F, mean (SD)","[1]; 300 mg QD (n=7), 28 days",781.0 (357.0) L
same,"AUCtau, mean (SD)","[1]; 450 mg QD (n=7), 28 days","11,000.0 (5970.0) h × ng/mL"
same,"CLss/F, mean (SD)","[1]; 450 mg QD (n=7), 28 days",57.6 (39.5) L/h
same,"Cmax,ss, mean (SD)","[1]; 450 mg QD (n=7), 28 days",932.0 (480.0) ng/mL
same,"Cmin,ss, mean (SD)","[1]; 450 mg QD (n=7), 28 days",168.0 (127.0) ng/mL
same,"Ctrough, mean (SD)","[1]; 450 mg QD (n=7), 28 days",184.1 (131.2) ng/mL
same,"T1/2, mean (SD)","[1]; 450 mg QD (n=7), 28 days",11.8 (4.8) h
same,"Tmax,ss, mean (SD)","[1]; 450 mg QD (n=7), 28 days",4.0 (1.0) h
same,"Vz,ss/F, mean (SD)","[1]; 450 mg QD (n=7), 28 days",1050.0 (974.0) L
same,"AUCtau, mean (SD)","[1]; 600 mg QD (n=7), 28 days","10,100.0 (5350.0) h × ng/mL"
same,"CLss/F, mean (SD)","[1]; 600 mg QD (n=7), 28 days",83.2 (58.9) L/h
same,"Cmax,ss, mean (SD)","[1]; 600 mg QD (n=7), 28 days",788.0 (394.0) ng/mL
same,"Cmin,ss, mean (SD)","[1]; 600 mg QD (n=7), 28 days",157.0 (89.6) ng/mL
same,"Ctrough, mean (SD)","[1]; 600 mg QD (n=7), 28 days",203.9 (99.2) ng/mL
same,"T1/2, mean (SD)","[1]; 600 mg QD (n=7), 28 days",12.7 (4.8) h
same,"Tmax,ss, mean (SD)","[1]; 600 mg QD (n=7), 28 days",3.9 (2.0) h
same,"Vz,ss/F, mean (SD)","[1]; 600 mg QD (n=7), 28 days",1780.0 (2080.0) L
same,"Ctrough, mean (SD)","[1]; Cycle 1 Day 8 (192 h), 300 mg QD (n=7)",163.0 (241.5) ng/mL
same,"Ctrough, mean (SD)","[1]; Cycle 1 Day 8 (192 h), 450 mg QD (n=7)",178.1 (128.0) ng/mL
same,"Ctrough, mean (SD)","[1]; Cycle 1 Day 8 (192 h), 600 mg QD (n=7)",165.6 (66.6) ng/mL
same,"Ctrough, mean (SD)","[1]; Cycle 1 Day 15 (360 h), 300 mg QD (n=7)",161.5 (126.3) ng/mL
same,"Ctrough, mean (SD)","[1]; Cycle 1 Day 15 (360 h), 450 mg QD (n=7)",216.5 (111.8) ng/mL
same,"Ctrough, mean (SD)","[1]; Cycle 1 Day 15 (360 h), 600 mg QD (n=7)",188.7 (67.3) ng/mL
same,"Ctrough, mean (SD)","[1]; Cycle 1 Day 22 (528 h), 300 mg QD (n=7)",124.2 (126.2) ng/mL
same,"Ctrough, mean (SD)","[1]; Cycle 1 Day 22 (528 h), 450 mg QD (n=7)",236.3 (83.4) ng/mL
same,"Ctrough, mean (SD)","[1]; Cycle 1 Day 22 (528 h), 600 mg QD (n=7)",164.1 (65.7) ng/mL
same,"median Tmax,ss","[1]; among 300, 450, 600 mg QD cohorts, 28 days",4.0 h
same,time to steady state,[1]; continuous administration,seven
same,dose-limiting toxicity (DLT),[2],No dose-limiting toxicity (DLT) occurred
